The values below come from patent US8664210B2, “Aminooxime derivatives of 2- and/or 4-substituted androstanes and androstenes as medicaments for cardiovascular disorders” (priority 2007, dated 2014).

The target of data set [1] is Dog Kidney Na+, K+-ATPase (Canis lupus familiaris, UniProt P50997). Briefly: Dog kidney Na+,K+-ATPase inhibition (hydrolysis of 32P-ATP). Format: biochemical.
The test system of data set [2] is anesthetized guinea-pig. Briefly: inotropic effect and lethal dose in anesthetized guinea-pig (infusion over 90 minutes). Format: in vivo. To be noted: for Dead/treated / ED80 (inotropic potency, dose increasing +dP/dTmax by 80%) / EDmax (dose inducing maximum positive inotropic effect) / Emax % increase in +dP/dTmax (maximum increase in contractile force) / Maximum dose infused: anesthetized guinea-pig, infusion over 90 min; for Lethal dose/ED80: calculated in the died animals. The protocol:
The inotropic activity is shown as maximum increase in contractile force (Emax measured as +dP/dTmax), dose inducing maximum positive inotropic effect (EDmax), inotropic potency (ED80, dose increasing +dP/dTmax by 80%); the toxicity as the ratio between lethal dose and inotropic potency (calculated in the died animals). All animals, previously anesthetized, were administered the drug through infusion over a 90 minute period.

The mark [3] stands for this setting: dog kidney enzyme, read-out: Na+, K+-ATPase Inhibition IC50.

Where a name gives a salt, the structure may show the parent alone. Read-outs that look alike come from different tables or passages of the source.

As to `CC(C)C1=C2CC[C@H]3[C@@H]4CC[C@H](O)[C@@]4(C)CC[C@@H]3[C@@]2(C)CC/C1=N\O[C@@H]1CCNC1` [I-bv, fumarate], in data set [1] (setting [3]), the half-maximal inhibitory concentration (IC50) (usually the concentration that inhibits the measured activity by half) was determined as 3900 nM. On to `CC1(C)/C(=N/O[C@@H]2CCNC2)CC[C@]2(C)[C@H]3CC[C@]4(C)[C@@H](O)CC[C@H]4[C@@H]3CC[C@@]12O` [I-by, (E)-3-[3-(R)-Pyrrolidinyl]oxyimino-4,4-dimethylandrostan-5α,17β-diol hydrochloride], for which the IC50 in data set [1] came out at 2200 nM. The compound `CC[C@H]1/C(=N/OCCN)CC[C@@]2(C)C1C(=O)C[C@@H]1[C@@H]2CC[C@]2(C)C(=O)CC[C@@H]12` (stereo partly drawn) [I-bd, (E)-3-(2-Aminoethoxyimino)-4β-ethylandrostan-6,17-dione hydrochloride] returned an IC50 in data set [1] of 130 nM. Still for that read-out and setting: in the case of `C[C@]12CC/C(=N\O[C@@H]3CCNC3)[C@@H](F)C1CC[C@@H]1[C@@H]2CC[C@]2(C)C(=O)CC[C@@H]12` (stereo partly drawn) [I-bl, (E)-3-[3-(R)-Pyrrolidinyl]oxyimino-4α-fluoroandrostan-17-one fumarate] it was 550 nM. Turning to `CC12CCC3C(CCC4C5(CCCC5)C(=NOC5CCNC5)CCC34C)C1CCC2O` [I-bq, (E)-3-[(3-(R)-Pyrrolidinyl)oxyimino]-4-spirocyclopentaneandrostan-17β-ol fumarate], in data set [1] (setting [3]), the IC50 came to 3100 nM.

Compound `CC[C@H]1/C(=N/O[C@@H]2CCNC2)CC[C@@]2(C)C1C(=O)C[C@@H]1[C@@H]2CC[C@]2(C)C(=O)CC[C@@H]12.Cl` (stereo partly drawn) [I-be, (E)-3-[3-(R)-Pyrrolidinyl]oxyimino-4β-ethylandrostan-6,17-dione hydrochloride] gave an IC50 in data set [1] of 49 nM. Also, in data set [2], the Dead/treated is on record as 3/3; the “ED80 (inotropic potency, dose increasing +dP/dTmax by 80%)” value is 1.40 µmol/kg; the “EDmax (dose inducing maximum positive inotropic effect)” value (“EDmax” below) was found to be 2.81 µmol/kg; the “Emax % increase in +dP/dTmax (maximum increase in contractile force)” value (“Emax % increase in +dP/dTmax” for short) stood at 179%. Further, in data set [2], the Maximum dose infused was found to be 12.6 µmol/kg and the “Lethal dose/ED80” value is recorded as 7.8. `CC[C@H]1/C(=N/O[C@@H]2CCNC2)CC[C@@]2(C)C1[C@@H](O)C[C@@H]1[C@@H]2CC[C@]2(C)C(=O)CC[C@@H]12` (stereo partly drawn) [I-bx, (E)-3-[3-(R)-Pyrrolidinyl]oxyimino-4β-ethyl-6α-hydroxyandrostan-17-one hydrochloride]: the IC50 in data set [1] came out at 65 nM.

`CC12CCC3C(C(O)CC4C5(CCCC5)C(=NOC5CCNC5)CCC34C)C1CCC2O` [I-bs, (E)-3-[(3-(R)-Pyrrolidinyl)oxyimino]-4-spirocyclopentaneandrostan-7α,17β-diol fumarate]: in data set [1] (setting [3]), the half-maximal inhibitory concentration (IC50) worked out at 1100 nM. Consider `C[C@H]1O[C@@H](O[C@H]2[C@@H](O)C[C@H](O[C@H]3[C@@H](O)C[C@H](O[C@H]4CC[C@@]5(C)[C@H](CC[C@@H]6[C@@H]5C[C@@H](O)[C@]5(C)[C@@H](C7=CC(=O)OC7)CC[C@]65O)C4)O[C@@H]3C)O[C@@H]2C)C[C@H](O)[C@@H]1O` [Digoxin, digoxin], for which, in data set [2], the Dead/treated is 10/10; the “ED80 (inotropic potency, dose increasing +dP/dTmax by 80%)” value turned out to be 0.29 µmol/kg; the “EDmax” value is 0.65 µmol/kg; the “Emax % increase in +dP/dTmax” value was found to be 158%. For the same compound, in data set [2], the Maximum dose infused came out at 1.16 µmol/kg and the “Lethal dose/ED80” value is 4.0. As to `CC1(C)/C(=N/O[C@@H]2CCNC2)CC[C@]2(C)[C@H]3CC[C@]4(C)C(=O)CC[C@H]4[C@@H]3CC(=O)[C@@]12O` [I-au, (E)-3-[3-(R)-Pyrrolidinyl]oxyimino-4,4-dimethyl-5α-hydroxyandrostan-6,17-dione fumarate], the IC50 in data set [1] worked out at 2200 nM. In the case of `C[C@]12CC[C@H]3[C@@H](CC=C4C5(CC5)/C(=N/O[C@@H]5CCNC5)CC[C@@]43C)[C@@H]1CC[C@@H]2O` [I-bc, (E)-3-[3-(R)-Pyrrolidinyl]oxyimino-4-spirocyclopropane androst-5-en-17β-ol fumarate], the IC50 in data set [1] (setting [3]) is 1800 nM.

`CC1(C)/C(=N/OCCCN)CC[C@@]2(C)C1CC[C@H]1[C@@H]3CC[C@H](O)[C@@]3(C)CC[C@@H]12` (stereo partly drawn) [I-ai, (E)-3-(3-Aminopropoxyimino)-4,4-dimethylandrostan-17β-ol fumarate]: the half-maximal inhibitory concentration (IC50) in data set [1] is 1900 nM. For the compound `CO/N=C1\C[C@H]2[C@@H]3CC[C@H](O)[C@@]3(C)CC[C@@H]2[C@@]2(C)C[C@@H](F)/C(=N/O[C@@H]3CCNC3)CC12` (stereo partly drawn) [I-bk, (E)-3-[3-(R)-Pyrrolidinyl]oxyimino-2α-fluoro-6-(E)-methoxyiminoandrostan-17β-ol fumarate], the half-inhibitory concentration (IC50) in data set [1] (setting [3]) worked out at 1900 nM. The compound `CC1(C)/C(=N/O[C@@H]2CCNC2)CC[C@@]2(C)C1CC[C@H]1[C@@H]3CC[C@H](O)[C@@]3(C)CC[C@@H]12` (stereo partly drawn) [I-ak, (E)-3-[3-(R)-Pyrrolidinyl]oxyimino-4,4-dimethylandrostan-17β-ol fumarate] had a half-inhibitory concentration (IC50) in data set [1] of 2000 nM.

Compound `CC1(C)/C(=N/OCCN)CC[C@@]2(C)C1CC[C@@H]1[C@@H]2CC[C@]2(C)C(=O)CC[C@@H]12` (some centres unmarked) [I-am, (E)-3-(2-Aminoethoxyimino)-4,4-dimethylandrostan-17-one fumarate] registered an IC50 in data set [1] of 1700 nM. `C[C@]12C[C@@H](F)/C(=N/O[C@@H]3CCNC3)CC1CC[C@@H]1[C@@H]2CC[C@]2(C)C(=O)CC[C@@H]12.Cl` (stereo partly drawn) [I-bh, (E)-3-[3-(R)-Pyrrolidinyl]oxyimino-2α-fluoroandrostan-17-one hydrochloride]: the IC50 in data set [1] is 1100 nM. In data set [2], the Dead/treated is recorded as 2/2; the “ED80 (inotropic potency, dose increasing +dP/dTmax by 80%)” value turned out to be 7.00 µmol/kg; the “EDmax” value was 14.0 µmol/kg; the “Emax % increase in +dP/dTmax” value is given as 210%. Also, in data set [2], the Maximum dose infused came to 100.8 µmol/kg and the “Lethal dose/ED80” value is recorded as 7.5. In data set [1], `CC1(C)/C(=N/OCCN)CC[C@@]2(C)C1C(=O)C[C@@H]1[C@@H]2CC[C@]2(C)C(=O)CC[C@@H]12` (some centres unmarked) [I-at, (E)-3-(2-Aminoethoxyimino)-4,4-dimethylandrostan-6,17-dione fumarate] gave an IC50 of 1700 nM. Compound `CNCCCON=C1CCC2(C)C3CCC4(C)C(O)CCC4C3CCC2C1(C)C` (stereo not drawn) [I-aj, (E)-3-(3-N-Methylaminopropoxyimino)-4,4-dimethylandrostan-17β-ol fumarate] showed a half-inhibitory concentration (IC50) in data set [1] of 1400 nM. In data set [1], `C[C@]12CC[C@H]3[C@@H](CCC4C/C(=N\OCCN)[C@H](F)C[C@@]43C)[C@@H]1CC[C@@H]2O` (stereo partly drawn) [I-bf, (E)-3-(2-Aminoethoxyimino)-2α-fluoroandrostan-17β-ol fumarate] had a 50% inhibitory concentration (IC50) of 2400 nM. The same measure, in the same setting: in the case of `CC[C@@H]1/C(=N/O[C@@H]2CCNC2)CC[C@@]2(C)C1CC[C@H]1[C@@H]3CC[C@H](O)[C@@]3(C)CC[C@@H]12` (stereo partly drawn) [I-bw, (E)-3-[(3-(R)-Pyrrolidinyl)oxyimino]-4α-ethylandrostan-17β-ol fumarate] it was 1800 nM; in that of `CC1=C2CC[C@H]3[C@@H]4CC[C@H](O)[C@@]4(C)CC[C@@H]3[C@@]2(C)CC/C1=N\OCCN` [I-aa, (E)-3-(2-Aminoethoxyimino)-4-methylandrost-4-en-17β-ol hydrochloride], 4900 nM; in that of `CC1(C)/C(=N/O[C@@H]2CCNC2)CC[C@@]2(C)C1CC[C@@H]1[C@@H]2CC[C@]2(C)C(=O)CC[C@@H]12` (stereo partly drawn) [I-ao, (E)-3-[3-(R)-Pyrrolidinyl]oxyimino-4,4-dimethylandrostan-17-one fumarate], 1300 nM. For the compound `C[C@]12CC[C@H]3[C@@H](CC=C4C5(CC5)/C(=N/OCCN)CC[C@@]43C)[C@@H]1CC[C@@H]2O` [I-bb, (E)-3-(2-Aminoethoxyimino)-4-(spirocyclopropane)-5-androsten-17β-ol fumarate], the 50% inhibitory concentration (IC50) in data set [1] (setting [3]) amounted to 1500 nM. `C[C@]12CC[C@H]3[C@@H](CCC4C/C(=N\O[C@@H]5CCNC5)[C@H](F)C[C@@]43C)[C@@H]1CC[C@@H]2O` (stereo partly drawn) [I-bg, (E)-3-[3-(R)-Pyrrolidinyl]oxyimino-2α-fluoroandrostan-17β-ol fumarate] returned a concentration for half-maximal inhibition (IC50) in data set [1] of 840 nM. Take `CC1(C)/C(=N/OCCN)CC[C@@]2(C)C1CC[C@H]1[C@@H]3CC[C@H](O)[C@@]3(C)CC[C@@H]12` (stereo partly drawn) [I-ag, (E)-3-(2-Aminoethoxyimino)-4,4-dimethylandrostan-17β-ol fumarate]: the half-maximal inhibitory concentration (IC50) in data set [1] was 3900 nM. As to `CC1(C)/C(=N/O[C@H]2CCNC2)CC[C@@]2(C)C1CC[C@H]1[C@@H]3CC[C@H](O)[C@@]3(C)CC[C@@H]12` (stereo partly drawn) [I-al, (E)-3-[3-(S)-Pyrrolidinyl]oxyimino-4,4-dimethylandrostan-17β-ol fumarate], the half-maximal inhibitory concentration (IC50) in data set [1] worked out at 2600 nM. Same read-out and setting: in the case of `CC1(C)/C(=N/OCCCN)CC[C@@]2(C)C1CC[C@@H]1[C@@H]2CC[C@]2(C)C(=O)CC[C@@H]12` (some centres unmarked) [I-an, (E)-3-(3-Aminopropoxyimino)-4,4-dimethylandrostan-17-one fumarate] it was 1500 nM. Compound `C[C@]12CC/C(=N\O[C@@H]3CCNC3)[C@@H](O)C1CC[C@@H]1[C@@H]2CC[C@]2(C)C(=O)CC[C@@H]12` (stereo partly drawn) [I-bn, (E)-3-[3-(R)-Pyrrolidinyl]oxyimino-4α-hydroxyandrostan-17-one fumarate] gave an IC50 in data set [1] of 2700 nM. Turning to `C[C@]12CC/C(=N\O[C@@H]3CCNC3)C3(CC3)C1=CC[C@@H]1[C@@H]2CC[C@]2(C)C(=O)CC[C@@H]12` [I-bo, (E)-3-[(3-(R)-Pyrrolidinyl)oxyimino]-4-spirocyclopropane-5-androsten-17-one fumarate], in data set [1] (setting [3]), the IC50 was 690 nM.

With `C[C@]12CC[C@H]3[C@@H](CC(=O)C4C/C(=N\O[C@@H]5CCNC5)[C@H](F)C[C@@]43C)[C@@H]1CC[C@@H]2O` (stereo partly drawn) [I-bi, (E)-3-[3-(R)-Pyrrolidinyl]oxyimino-2α-fluoro-17β-hydroxyandrostan-6-one fumarate], in data set [1], the IC50 amounted to 1300 nM.
